This is an account of results in patent US20040198663A1, “Method of treating cardiac ischemia by using erythropoietin” (priority 2003, published 2004).

Assay [1] deals with p38 MAP kinase. In words: Western analysis of cytosolic and particulate fractions of erythropoietin-treated hearts. On the set-up: species or system rabbit. As to the method:
(§1) Western analysis. Hearts from infant rabbits were isolated and aerobically perfused with bicarbonate buffer for 30 minutes at constant pressure, then perfused with erythropoietin for 5 or 15 minutes. The free wall of the left ventricle was excised and immediately freeze-clamped between stainless steel tongs pre-cooled with liquid nitrogen. Frozen myocardial tissue samples were powdered in a pre-cooled stainless steel mortar and pestle.
(§2) The powdered tissue was then processed to obtain cytosolic and particulate fractions for Western analysis, as described in Raflee et al., Circulation 106:239-45 (2002). Powdered tissue was homogenized in sample buffer (50 mM Tris pH 7.5, 5 mM EDTA, 10 mM EGTA, 10 mM benzamidine, 10 μg/ml pepstatin A, 50 μg/ml PMSE, 10 μg/ml aprotinin, 10 μg/ml leupeptin, and 0.3% β-mercaptoenthanol) on ice for 50 strokes. Nuclei and cellular debris was removed by centrifugation (1000 g at. 4° C. for 15 min). The supernatant was transferred to a new cold 1.5 mL microcentrifuge tube. The cytosolic and particulate portions of total cellular proteins were separated by a 30-minute centrifugation at 45000 g. Protein concentrations were determined by the method of Bradford. Equal amounts of protein were analyzed by SDS-PAGE and Western blotting by using either isoform-specific antibodies for phospho-PKC detection or specific antibodies against phosphorylated and non-phosphorylated p38 MAPK, JNK, and p42/44 MAPK. The blots were developed by ECL. Densitometry was performed on each sample and analyzed with the use of NIH image software. Rafiee et al., Circulation 106:239-45 (2002).
(§3) Cytosolic and particulate fractions from erythropoietin-treated and untreated hearts were prepared. Protein content for PKCε, p38 MAP kinase, p42/44 MAP kinase and JUN kinase was determined by SDS-PAGE and Western blot analysis using monoclonal antibodies specific for PKCε, phosphorylated p38 MAP kinase (Thr180/Tyr182), p42/44 MAP kinase (Thr202/Tyr204), and JUN kinase (Thr183/Tyr185). Non-phosphorylated antibodies were used to ensure equal loading of proteins.

Assay [2] deals with p42/44 MAP kinase. Described as above. The arrangement: species or system rabbit. As to the method:
as §1, §2, §3

In assay [3] the test system is PKCε. The assay is described as above. The arrangement: species or system rabbit. The settings on record: erythropoietin 1.0 U/ml. As to the method: as §1, §2, §3
Assay [4] has as its system JUN kinase. The assay is described as above. The arrangement: species or system rabbit. As to the method:
as §1, §2, §3

Assay [5] deals with adult male Sprague Dawley rat hearts. In words: Coronary artery ligation model, isolated perfused heart, 30 min regional ischemia and 3 hours reperfusion. Conditions: erythropoietin 1.0 U/ml 15 minutes prior to regional ischemia, vs control. An excerpt:
Animals used in this study were adult male Sprague Dawley rats (200-350 g, generally 300 g). Animals were housed under standard conditions and allowed to feed ad lib. The Animal Care and Use Committee of the Medical College of Wisconsin approved all procedures performed in accordance with the regulations adopted by the National Institutes of Health.
A myocardial infarction was produced via the ligation of the left main artery using 6-0 prolene suture (See, e.g., Clements-Jewery et al., Br J Pharmacol. 135:807-815, 2002; Farkas et al., J Cardiovasc Pharmacol. 39,412-424, 2002). Rats were anesthetized with sodium pentobarbital (50 mg/kg i.p.). Heparin was then administered (150 U/kg i.p.) to prevent the formation of a thrombus in the coronary vasculature. The heart was then excised and perfused retrogradely with bicarbonate buffer at a pressure of 80 mmHg. (See e.g., Baker et al., Am J Physiol 278, H1395-H1400, 2000). The perfusate was not recirculated. […]
The heart was sectioned in 2 mm segments from apex to atrio-ventricular groove in a transverse fashion. Each segment was recorded and placed in formalin. […] The percentage of infarction of each slide was expressed as a percentage of the entire area of the heart.

Where [6] appears, read: erythropoietin 1.0 U/ml for 5 minutes.
[7] abbreviates: erythropoietin 1.0 U/ml for 15 minutes.

Turning to “erythropoietin: Recombinant human erythropoietin, a glycoprotein hormone, obtained from Cell Science, Inc.”, the “treatment time at which phosphorylation of p38 MAP kinase was maximized” value in assay [1] (erythropoietin 1.0 U/ml) amounted to 5 min. Further, the “phosphorylation of p38 MAP kinase” value in assay [1] (setting [6]) was “phosphorylation of p38 MAP kinase in the cytosolic fraction but not in the particulate fraction”. Moreover, the “extent of phosphorylation of p38 MAP kinase” value in assay [1] (setting [7]) is “declined”. In addition, in assay [2] (erythropoietin 1.0 U/ml), the “treatment time at which phosphorylation of p42/44 MAP kinase was maximal” value was determined as 15 min. Also, the “phosphorylation of p42/44 MAP kinase” value was “remarkable phosphorylation of p42/44 MAP kinase in the cytosolic fraction with minor phosphorylation in the particulate fraction” in assay [2] (setting [6]); “enhanced phosphorylation of p42/44 MAP kinase in the cytosolic fraction and in the particulate fraction” in assay [2] (setting [7]). Besides, in assay [3], the “treatment time at which phosphorylation of PKCε was maximal” value turned out to be 15 min. In addition, in assay [3] (5 or 15 minutes), the “PKCε activation and translocation” value is “activated and translocated from the cytosolic to the particulate fraction”. Besides, the “treatment time at which phosphorylation of JUN kinase was maximized” value in assay [4] (erythropoietin 1.0 U/ml) turned out to be 5 min. Also, in assay [4] (setting [6]), the “phosphorylation of JUN kinase” value is “phosphorylation of JUN kinase in the cytosolic fraction but not in the particulate fraction”. The “phosphorylation of JUN kinase in the cytosolic fraction” value in assay [4] (setting [7]) was “declined”. In addition, the myocardial infarct size result in assay [5] was “decrease in myocardial infarct size”.
